Data as given in PubChem BioAssay (NCI).
Values joined by “and” are separate entries in the source; they are usually repeats but may differ in a detail not shown here. Equal entries are not always repeated.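 Method: 48-hour compound exposure of cells in 96-well plates, five concentrations, linear interpolation of endpoints. At the GI50, growth is halved. Definition used: TGI = concentration required for complete inhibition of growth.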

How the values were obtained:
Experiment in all cases: NCI-60 cell line screen, 48 h
[1] = test system: SK-MEL-5 melanoma
[2] = test system: MOLT-4 leukemia
[3] = test system: U251 CNS
[4] = test system: K-562 leukemia
[5] = test system: EKVX NSCLC
[6] = test system: MALME-3M melanoma
[7] = test system: OVCAR-5 ovarian
[8] = test system: SNB-75 CNS
[9] = test system: KM12 colon
[10] = test system: RPMI-8226 leukemia

| Compound | TGI [1] | TGI [2] [µM] | TGI [3] | TGI [4] [µM] | TGI [5] | TGI [6] [µM] | TGI [7] | TGI [8] | TGI [9] | TGI [10] [µM] | GI50 [1] [µM] | GI50 [2] [µM] | GI50 [3] [µM] | GI50 [4] [µM] | GI50 [5] [µM] | GI50 [6] [µM] | GI50 [7] [µM] | GI50 [8] [µM] | GI50 [9] [µM] | GI50 [10] [µM] |
| --- | --- | --- | --- | --- | --- | --- | --- | --- | --- | --- | --- | --- | --- | --- | --- | --- | --- | --- | --- | --- |
| NCCCCNOCCCN | > 100 µM | > 100 | > 100 µM | > 100 | > 100 µM | > 100 | > 100 µM | > 100 µM | > 100 µM | > 100 | – | – | – | – | – | – | – | – | – | – |
| C/C=C(/CCC1NCCc2c1[nH]c1ccccc21)[Si](C)(C)C (stereo unspecified) | > 100 µM and 11.8 µM | – | > 100 µM and 13.6 µM | > 100 | > 100 µM and 22.3 µM | – | > 100 µM and 14.6 µM | > 100 µM and 19.9 µM | > 100 µM and 12.1 µM | – | – | – | – | – | – | – | – | – | – | – |
| C=CCN1C(=O)NC(=O)/C(=C/c2c3ccccc3cc3ccccc23)C1=O | > 10 µM | 48.9 | 36.5 µM | 66.5 | 48.8 µM | 39.3 | 44.4 µM | 45 µM | 31.8 µM | – | – | – | – | – | – | – | – | – | – | – |
| O=c1[nH]c2ccccc2c2oc3ccccc3c12 | > 100 µM | > 100 | > 100 µM | > 100 | > 100 µM | > 100 | – | 32.6 µM | > 100 µM | – | – | – | – | – | – | – | – | – | – | – |
| O=S1(=O)C(=C(c2ccccc2)c2ccccc2)S(=O)(=O)c2ccccc21 | > 100 µM | > 100 | > 100 µM | > 100 | > 100 µM | > 100 | > 100 µM | 44.4 µM | > 100 µM | > 100 | – | – | – | – | – | – | – | – | – | – |
| O=c1c(-c2ccccc2)c(SCCCN2CCCCC2)n(-c2ccccc2)c(=S)n1-c1ccccc1 | 30.8 µM | 47 | 29.1 µM | 34.1 | > 100 µM | 37.7 | > 100 µM | 29.5 µM | 41.6 µM | 37.7 | – | – | – | – | – | – | – | – | – | – |
| COC(=O)C(C)NP(=O)(OCc1cccc(Cn2cnc3c(N)ncnc32)c1)Oc1ccccc1 (stereo unspecified) | > 100 µM | > 100 | > 100 µM | > 100 | > 100 µM | > 100 | > 100 µM | > 100 µM | > 100 µM | > 100 | 54.1 | 38.3 | > 100 | > 100 | > 100 | 68.2 | > 100 | > 100 | 68.2 | > 100 |
| O=c1c2ccccc2nc2n1CCc1c-2[nH]c2ccccc12 | 28.6 µM | > 100 | 28.6 µM | > 100 | 60.5 µM | 73.7 | 31.2 µM | 40.7 µM | – | > 100 | – | – | – | – | – | – | – | – | – | – |
| CCOC(=O)c1c(Cl)c2c(n1Cc1ccccc1)-c1oncc1CCC2 | > 100 µM | > 100 | – | > 100 | – | > 100 | > 100 µM | – | > 100 µM | > 100 | 3.53 | 3.58 | – | 3.68 | – | 3.68 | > 100 | – | 3.71 | 3.27 |
| COC(=O)C1=C(O)C(C(=O)OC)[C@@]2(O)[C@@H](C(=O)OC)[C@H](C)C[C@@H]1[C@@H]2C(=O)OC (stereo partly specified) | – | > 100 | 53.2 µM | > 100 | 69.6 µM | > 100 | 98.9 µM | 78.1 µM | 58.1 µM | 71.5 | – | – | – | – | – | – | – | – | – | – |
| CC(C)(CCCCC(C)(C)NC1=NCCO1)NC1=NCCO1 | > 10 µM | > 10 | > 10 µM | > 10 | > 10 µM | > 10 | > 10 µM | > 10 µM | > 10 µM | > 10 | – | – | – | – | – | – | – | – | – | – |
